The record followed here is patent US9458463B2, “Method for treatment of diabetes by a small molecule inhibitor for GRK5” (MAX-PLANCK-GESELLSCHAFT ZUR FÖRDERUNG DER WISSENSCHAFTEN …, priority 2010, dated 2016).

One assay addresses T1, full length GRK5 (Homo sapiens, UniProt P34947).
T1 construct: 6/2 fold concentrated full length GRK5 (Millipore, #14-714) in reaction buffer; purchased Millipore 14-714
Briefly: GRK5 kinase activity assay, ADP Glo Kinase Assay technology (Promega). As to conditions: group II; ADP Glo Kinase Assay (Table 9-B). Type of assay: biochemical. The method, then: The maximal compound assay concentration was set to 100 μM, representing the compound assay concentration used in the primary screen.
Increasing concentrations of GRK5 are incubated together with 100 μM ATP in the absence and presence of 10 μM casein in a reaction buffer. Within this incubation non-phosphorylated casein is converted into phosphorylated casein and ATP is converted into ADP. Thereafter nonconverted ATP is digested into AMP by addition of the ADP-Glo™ Reagent. Subsequently the ADP that is produced by GRK5 activity is phosphorylated back to ATP by addition of Promega Kinase Detection Reagent. These ATP levels serve as measure for the GRK5 activity and are quantified by a luciferase/luciferin reaction.
For GRK5 kinase activity assay, the following protocol was used:
The reaction buffer used was composed of: 20 mM MES pH 6.0, 1 mM DTT, 10 mM MgCl2, 0.01% Tween20 and the reaction volume was 6 μL.
Firstly 4 μL 6/4 fold concentrated substrate and 6/4 fold concentrated ATP in 1 fold concentrated reaction buffer are added to each well of the assay plate. Subsequently 67 nL […] concentrated test compound in 100% DMSO are added to each well except to C− and C+ wells using pin tool. Then 67 nL 100% DMSO are pipetted to C− (no kinase, no compound) and C+ (no compound) wells using pin-tool and 2 μL reaction buffer are added to C− wells. […] After incubation for 120 min. at room temperature 6 μL ADP-Glo™ Reagent (ADP Glo™ Kinase Assay Kit: Promega, V9101) are added to each well to stop the kinase reaction and deplete the unconsumed ATP. After a second incubation for 40 min. at room temperature 12 μL of Kinase Detection Reagent are added to convert ADP to ATP and start luciferase/luciferin reaction for detection of ATP. […] Finally, after incubation for 40 min at room temperature the luminescence intensity was measured.
The activity of the compounds was classified according to IC50 for binding sites of Grk5 into the following ranges:
8800 Customer compounds were screened for their ability to inhibit the enzymatic activity of GRK5. Screening was performed using the ADP Glo™ Kinase Assay technology (Promega). The small molecular weight compounds were delivered at 10 mM stock concentration and were tested at a final assay concentration of 100 μM.
IC50 values were determined in triplicates at 12 concentrations with a dilution factor of three. Triplicates were measured on three different assay plates. The maximal compound assay concentration was set to 100 μM representing the compound assay concentration used in the primary screen. A larger maximal compound assay concentration could not be achieved since the maximal compound concentration on the compound plates was 10 mM (>1% DMSO concentration in the assay).

The next assay deals with 3T3-L1 cells. Briefly: Cell viability assay (CellTiter-Glo / automated cell number) in 3T3-L1. To be noted: Mus musculus, read-out: Inhibition of cell viability IC50. It counts as cell-based. From the text:
(§1) Luminescent cell viability assay. For the detection of cell viability, the CellTiter-Glo® Luminescent Cell Viability Assay was used. This test is based on a luciferase reaction to measure the amount of ATP in cells. This correlates directly with the number of cells and their viability because cells lose the ability to synthesize ATP directly after e.g. loss of membrane integrity or a cytotoxic event. The protocol was adapted to 24 well plates and to the different culture conditions resulting in a standardized protocol which is described below. Cell lysis, inhibition of endogenous ATPases and detection of ATP was performed by adding the CellTiter-Glo® Reagent to the culture wells. Per well, 100 μl reagent were mixed with the same volume of proper Medium. Lysing of the cells took place by 10 min incubation at RT and moderate shaking. Three times 50 μl cell lysate was transferred into a white 96 well plate to eliminate stray light, and the bioluminescence was measured.
(§2) In a 96 well dish 10000 cells per well (100 μl) were seed and treated for 72 h. At the end of the treatment, cells were fixed with 4% paraformaldehyde in PBS for 15 minutes, permeabilized with 0.1% triton-X 100 in PBS for 15 minutes and stained with Hoechst 33342 (20 μg/ml in PBS; dilute from 20 mg/ml stock) directly to cells in 100 μl medium in PBS for 30 minutes at 37° C. Stained cells were imaged with a Cellomics ArrayScan VT I automated microscope. Images were analyzed with vHCS Scan Target Activation software v5.1.2 to identify apoptotic cells. Six fields per well of a 96 well plate we re-imaged at 10× magnification. First, cells were identified by their nuclei staining in channel 1 of Cellomics and their amount. Staining intensity was plotted and compared between NT controls and compound treated cells. Finally, data was obtained using vHCS View software v 5.1.2 and the numbers of cells present in the 96 well were identified as “Valid Object Count” whereas the percentage of infection was determined as “% selected”. IC50 values have been calculated accordingly.
(Cellular ATP, detected with luciferase, serves as a proxy for viable cell number.)

The test system of another assay is beta TC6 cells. The assay is described as follows: Cell viability assay (CellTiter-Glo / automated cell number) in beta TC6. It counts as cell-based. To be noted: Mus musculus, read-out: Inhibition of cell viability IC50.
Source text: as §1, §2

A further assay deals with C2C12 cells. The assay is described as follows: Cell viability assay (CellTiter-Glo / automated cell number) in C2C12. Type of assay: cell-based. To be noted: Mus musculus, read-out: Inhibition of cell viability IC50.
Source text: as §1, §2

The test system of a further assay is HepG2 cells. Briefly: Cell viability assay (CellTiter-Glo / automated cell number) in HepG2. As to conditions: Homo sapiens, read-out: Inhibition of cell viability IC50. It counts as cell-based.
Source text: as §1, §2

SMILES strings stand for the structures.

T1 sequence (P34947 whole entry): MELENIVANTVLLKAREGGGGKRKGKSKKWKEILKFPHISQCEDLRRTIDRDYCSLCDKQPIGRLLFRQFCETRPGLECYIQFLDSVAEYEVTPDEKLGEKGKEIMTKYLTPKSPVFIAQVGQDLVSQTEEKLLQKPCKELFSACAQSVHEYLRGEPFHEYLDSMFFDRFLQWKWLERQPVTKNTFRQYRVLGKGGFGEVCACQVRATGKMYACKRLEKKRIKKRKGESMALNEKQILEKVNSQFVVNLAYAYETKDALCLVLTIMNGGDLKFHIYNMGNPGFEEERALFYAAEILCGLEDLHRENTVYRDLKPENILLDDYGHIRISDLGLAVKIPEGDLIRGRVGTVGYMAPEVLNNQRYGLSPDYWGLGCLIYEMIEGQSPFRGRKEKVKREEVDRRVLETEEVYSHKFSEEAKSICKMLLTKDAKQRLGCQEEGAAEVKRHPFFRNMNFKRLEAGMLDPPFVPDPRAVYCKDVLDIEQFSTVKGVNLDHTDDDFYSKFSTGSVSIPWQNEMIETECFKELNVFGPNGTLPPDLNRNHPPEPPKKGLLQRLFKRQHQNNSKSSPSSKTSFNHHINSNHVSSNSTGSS

Regarding `CC[C@@H](NC(=O)c1ccc2c(c1)/C(=C/c1[nH]c(C)c(C(=O)NCCN3CCCC3)c1C)C(=O)N2)c1ccccc1` [II.6, (3Z)-3-({3,5-dimethyl-4-[(2-pyrrolidin-1-ylethyl)carbamoyl]-1H-pyrrol-2-yl}methylene)-2-oxo-N-[(1R)-1-phenylpropyl]indoline-5-carboxamide], the IC50 was 100 to 1000 nM against full length GRK5; 1700 nM in the assay on 3T3-L1 cells; 420 nM in the assay on beta TC6 cells; 1490 nM in the assay on C2C12 cells; 270 nM in the assay on HepG2 cells.
Consider `CC[C@@H](NC(=O)c1ccc2c(c1)/C(=C/c1[nH]c(C)c(C(=O)N3CCN(C)CC3)c1C)C(=O)N2)c1ccccc1` [II.7, (3Z)-3-({3,5-dimethyl-4-[(4-methylpiperazin-1-yl)carbonyl]-1H-pyrrol-2-yl}methylene)-2-oxo-N-[(1R)-1-phenylpropyl]indoline-5-carboxamide], for which the IC50 at full length GRK5 is 2000 to 10000 nM; in the assay on 3T3-L1 cells, 1070 nM; in the assay on beta TC6 cells it was 1190 nM; in the assay on C2C12 cells it was 1310 nM; in the assay with HepG2 cells, 690 nM.
For `CCC(NC(=O)c1ccc2c(c1)/C(=C/c1[nH]c(C)c(C(=O)NCCN3CCCC3)c1C)C(=O)N2)c1ccc(Cl)cc1` (stereo not drawn) [II.13, (3Z)-N-[1-(4-chlorophenyl)propyl]-3-({3,5-dimethyl-4-[(2-pyrrolidin-1-ylethyl)carbamoyl]-1H-pyrrol-2-yl}methylene)-2-oxoindoline-5-carboxamide], in that order: 100 to 1000 nM, over 10000 nM, 1630 nM, 4610 nM and 1590 nM.
For `Cc1[nH]c(/C=C2\C(=O)Nc3ccc(C(=O)N[C@H](C)c4ccccc4)cc32)c(C)c1C(=O)N1CCCCC1` [II.14, (3Z)-3-{[3,5-dimethyl-4-(piperidin-1-ylcarbonyl)-1H-pyrrol-2-yl]methylene}-2-oxo-N-[(1R)-1-phenylethyl]indoline-5-carboxamide], in that order: 100 to 1000 nM, 750 nM, 1190 nM, 1420 nM and 720 nM.
For `Cc1[nH]c(/C=C2\C(=O)Nc3ccc(C(=O)N[C@H](C)c4ccccc4)cc32)c(C)c1C(=O)N1CCN(C)CC1` [II.15, (3Z)-3-({3,5-dimethyl-4-[(4-methylpiperazin-1-yl)carbonyl]-1H-pyrrol-2-yl}methylene)-2-oxo-N-[(1R)-1-phenylethyl]indoline-5-carboxamide] the same measures were 1000 to 2000 nM, 1120 nM, 1680 nM, 2370 nM and 540 nM.
Consider `COc1ccc([C@@H](C)NC(=O)c2ccc3c(c2)/C(=C/c2[nH]c(C)c(C(=O)N4CCN(C)CC4)c2C)C(=O)N3)cc1` [II.21, (3Z)-3-({3,5-dimethyl-4-[(4-methylpiperazin-1-yl)carbonyl]-1H-pyrrol-2-yl}methylene)-N-[(1R)-1-(4-methoxyphenyl)ethyl]-2-oxoindoline-5-carboxamide], for which the IC50 is 2000 to 10000 nM at full length GRK5; 1310 nM with 3T3-L1 cells; 4070 nM with beta TC6 cells; 9830 nM with C2C12 cells; 1610 nM in the assay with HepG2 cells.
Turning to `CCN(CC)CCNC(=O)c1c(C)[nH]c(/C=C2\C(=O)Nc3ccc(C(=O)N[C@H](C)c4ccccc4)cc32)c1C` [II.59, (3Z)-3-[(4-{[2-(diethylamino)ethyl]carbamoyl}-3,5-dimethyl-1H-pyrrol-2-yl)methylene]-2-oxo-N-[(1R)-1-phenylethyl]indoline-5-carboxamide], the IC50 in the assay with 3T3-L1 cells came to 630 nM; in the assay with beta TC6 cells it was 710 nM; with C2C12 cells, 1110 nM; in the assay with HepG2 cells, 370 nM.
For `CCN(CC)CCNC(=O)c1c(C)[nH]c(/C=C2\C(=O)Nc3ccc(C(=O)N[C@@H](C)c4ccccc4)cc32)c1C` [II.60, (3Z)-3-[(4-{[2-(diethylamino)ethyl]carbamoyl}-3,5-dimethyl-1H-pyrrol-2-yl)methylene]-2-oxo-N-[(1S)-1-phenylethyl]indoline-5-carboxamide] the same measures were 2000 nM, 2210 nM, 4060 nM and 2290 nM.
Turning to `CC[C@@H](NC(=O)c1ccc2c(c1)/C(=C/c1[nH]c(C)c(C(=O)NCCN(CC)CC)c1C)C(=O)N2)c1ccccc1` [II.61, (3Z)-3-[(4-{[2-(diethylamino)ethyl]carbamoyl}-3,5-dimethyl-1H-pyrrol-2-yl)methylene]-2-oxo-N-[(1R)-1-phenylpropyl]indoline-5-carboxamide], the concentration for half-maximal inhibition (IC50) against full length GRK5 was under 100 nM; in the assay with 3T3-L1 cells it was 600 nM; with beta TC6 cells, 440 nM; in the assay with C2C12 cells, 1490 nM; with HepG2 cells it was 330 nM.
For `CC[C@@H](NC(=O)c1ccc2c(c1)/C(=C/Nc1ccc(CN3CCCCC3)cc1)C(=O)N2)c1ccccc1` [II.69, (3Z)-2-oxo-N-[(1R)-1-phenylpropyl]-3-({[4-(piperidin-1-ylmethyl)phenyl]amino}methylene)-indoline-5-carboxamide], in that order: under 100 nM, over 10000 nM, over 10000 nM, 5630 nM and 4510 nM.
As for `C[C@@H](NC(=O)c1ccc2c(c1)/C(=C/Nc1ccc(CN3CCCCC3)cc1)C(=O)N2)c1ccccc1` [II.78, (3Z)-2-oxo-N-[(1R)-1-phenylethyl]-3-({[4-(piperidin-1-ylmethyl)phenyl]amino}methylene)indoline-5-carboxamide], the IC50 was under 100 nM at full length GRK5; over 10000 nM with 3T3-L1 cells; over 10000 nM with beta TC6 cells; over 10000 nM in the assay with C2C12 cells; 5730 nM in the assay with HepG2 cells.
For `COc1cccc([C@@H](C)NC(=O)c2ccc3c(c2)/C(=C/Nc2ccc(CN4CCCCC4)cc2)C(=O)N3)c1` [II.79, (3Z)-N-[(1R)-1-(3-methoxyphenyl)ethyl]-2-oxo-3-({[4-(piperidin-1-ylmethyl)phenyl]amino}methylene)indoline-5-carboxamide], the 50% inhibitory concentration (IC50) at full length GRK5 is under 100 nM; in the assay on 3T3-L1 cells it was over 10000 nM; in the assay on beta TC6 cells, 2050 nM; with C2C12 cells, over 10000 nM; in the assay on HepG2 cells, 2080 nM.
For `C[C@@H](NC(=O)c1ccc2c(c1)/C(=C/Nc1ccc(CN3CCCCC3)cc1)C(=O)N2)c1cccc(Cl)c1` [II.80, (3Z)-N-[(1R)-1-(3-chlorophenyl)ethyl]-2-oxo-3-({[4-(piperidin-1-ylmethyl)phenyl]amino}methylene)indoline-5-carboxamide], the half-inhibitory concentration (IC50) is under 100 nM against full length GRK5; over 10000 nM in the assay with 3T3-L1 cells; 470 nM in the assay on beta TC6 cells; over 10000 nM in the assay with C2C12 cells; 3900 nM in the assay with HepG2 cells.

What is called IC50 is the concentration at which inhibition is half-maximal.
